Source: article PMC4749975, “Selective binding modes and allosteric inhibitory effects of lupane triterpenes on protein tyrosine phosphatase 1B” (Scientific Reports, 2016)
Entries after “also recorded” stand apart in the source; their conditions may differ. Read-outs that look alike come from different tables or passages of the source.

How the values were obtained:
PTP1B [1] = biological target: T1, PTP1B (Homo sapiens, UniProt P18031); test: Estimation of Ki and binding free energy from experimental IC50 (IC50-to-Ki converter)
T1 sequence (P18031 1-435): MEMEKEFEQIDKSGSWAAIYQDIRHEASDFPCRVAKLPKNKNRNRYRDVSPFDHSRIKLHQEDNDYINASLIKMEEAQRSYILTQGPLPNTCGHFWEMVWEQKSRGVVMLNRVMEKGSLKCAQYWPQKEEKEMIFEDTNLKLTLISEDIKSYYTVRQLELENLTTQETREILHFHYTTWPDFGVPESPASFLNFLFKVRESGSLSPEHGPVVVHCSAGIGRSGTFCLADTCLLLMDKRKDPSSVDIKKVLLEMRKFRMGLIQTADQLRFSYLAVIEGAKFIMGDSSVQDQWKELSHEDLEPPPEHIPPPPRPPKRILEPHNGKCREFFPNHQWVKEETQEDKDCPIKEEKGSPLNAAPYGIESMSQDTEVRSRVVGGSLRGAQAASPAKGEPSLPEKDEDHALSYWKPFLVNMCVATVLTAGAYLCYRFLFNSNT

PTP1B [2] = biological target: T2, PTP1B (Mus musculus, UniProt P35821); test: Immunoprecipitation assay of PTP1B activity in TNFα-treated mHypoE-46 neurons; type: cell-based
T2 construct: endogenous in cells; host or cells: mHypoE-46 mouse hypothalamic neurons
T2 sequence (P35821 1-432): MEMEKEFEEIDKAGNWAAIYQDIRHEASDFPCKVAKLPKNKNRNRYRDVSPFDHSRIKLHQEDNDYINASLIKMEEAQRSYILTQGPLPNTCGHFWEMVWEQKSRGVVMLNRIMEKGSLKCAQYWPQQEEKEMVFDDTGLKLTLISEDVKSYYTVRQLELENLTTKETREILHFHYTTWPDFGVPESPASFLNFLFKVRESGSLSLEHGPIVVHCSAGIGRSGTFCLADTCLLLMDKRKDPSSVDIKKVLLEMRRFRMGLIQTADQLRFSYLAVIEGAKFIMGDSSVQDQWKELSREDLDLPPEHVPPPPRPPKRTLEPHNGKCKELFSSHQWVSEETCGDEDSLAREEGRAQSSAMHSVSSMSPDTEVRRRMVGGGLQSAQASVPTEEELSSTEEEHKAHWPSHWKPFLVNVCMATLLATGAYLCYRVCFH
Method: (§1) Mouse hypothalamic cell line (mHypoE-46) neurons were grown in monolayer in Dulbecco’s modified Eagle medium (DMEM) (Sigma D5796, Castle Hill, NSW) with 10% fetal bovine serum (FBS) (SAFC Biosciences Inc, Lenexa, KS) and 1% penicillin/streptomycin. They were maintained at 37 °C with 5% CO2. Prior to treatment, the cell culture medium was replaced with DMEM containing 1% penicillin/streptomycin for 4 h. Murine TNFα was obtained from Sigma-Aldrich (Castle Hill, NSW). Lupeol and betulinic acid were dissolved in Dimethyl sulfoxide (DMSO), then diluted in sterile water, and mixed with serum free cell culture medium. The DMSO concentration was controlled below 0.15%.
Based on the instructions of the Pierce Classic IP Kit (#26146, Thermo Fisher Scientific Inc, IL) with minor modifications, PTP1B was immunoprecipitated using the 25 μg PTP1B antibody (sc-1718, Santa Cruz Biotechnology Inc, Dallas, TX) for 12 h at 4 °C. Immune complexes were isolated by adding the protein G-agarose, washed three times in the phosphatase assay buffer from the EnzoLyte Colorimetric pNPP Protein Phosphatase Assay kit (Anaspec, San Jose, CA), and resuspended in the same buffer. Samples were analysed for the phosphatase activity using the same pNPP assay kit mentioned above.

PTP1B [3] = biological target: T1, PTP1B; settings: cited from earlier work; for IC50: read-out: IC50 PTP1B
PTP1B [4] = test: Western blot of PTP1B protein expression in mHypoE-46 neurons; type: cell-based, Mouse; settings: for PTP1B protein expression: 10 h after TNFα 8 h
Method: as §1
The method was described in our previous study with modifications, mHypoE-46 neurons were washed with ice-cold PBS and lysed in NP-40 lysis buffer (Invitrogen Australia Pty Ltd, Mulgrave, VIC) containing a protease inhibitor cocktail, beta-glycerophosphate and phenylmethanesulfonyl fluoride (PMSF) (Sigma, Castle Hill, NSW). Cell lysates were centrifuged at 14000 rpm for 10 min at 4 °C. The supernatants were collected and protein concentrations were determined using the DC assay (Bio-Rad Laboratories, Gladesville, NSW) according to the manufacturer’s instructions. Equal amounts of protein (10 μg) were separated on 4–12% Bis-Tris gels (Bio-Rad Laboratories, Gladesville, NSW,) using SDS-PAGE. Following electrophoresis (120 V for 2 h), the proteins were transferred to polyvinylidene difluoride membranes (100 V for 1 h). Membranes were blocked in 5% bovine serum albumin (BSA), followed by incubation with the primary antibodies PTP1B (sc-1718, 1:500, Santa Cruz Biotechnology Inc, Dallas, TX) in 1% BSA overnight at 4 °C. […] The bands corresponding to the proteins of interest were scanned and densitometrically analysed using the automatic imaging analysis system Quantity One (Bio-Rad Laboratories, Gladesville, NSW). All quantitative analyses were normalised to β-actin.

[5] = biological target: T3, recombinant human TCPTP protein (Homo sapiens, UniProt P17706); test: Inhibiting TCPTP by pNPP phosphatase assay; type: biochemical; settings: for Fold changes (TCPTP IC50 / PTP1B IC50): PTP1B IC50 from literature, TCPTP IC50 measured
T3 construct: purchased Abcam Inc (Cambridge, MA) ab42575
T3 sequence (P17706 1-415): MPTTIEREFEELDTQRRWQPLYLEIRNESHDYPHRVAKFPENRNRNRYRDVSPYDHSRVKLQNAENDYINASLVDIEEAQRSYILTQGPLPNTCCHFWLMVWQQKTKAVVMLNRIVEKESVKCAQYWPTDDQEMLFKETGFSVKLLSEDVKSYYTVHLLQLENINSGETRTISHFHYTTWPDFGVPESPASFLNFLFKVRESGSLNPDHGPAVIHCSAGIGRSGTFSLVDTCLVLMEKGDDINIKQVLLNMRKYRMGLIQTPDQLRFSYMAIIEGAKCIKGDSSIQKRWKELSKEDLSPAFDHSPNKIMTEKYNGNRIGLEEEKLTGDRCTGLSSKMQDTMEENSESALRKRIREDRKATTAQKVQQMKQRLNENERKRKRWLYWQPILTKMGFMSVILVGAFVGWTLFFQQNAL

PTP1B [6] = biological target: T1, PTP1B; test: PTP1B inhibition kinetics assay (Lineweaver-Burk, pNPP); type: biochemical; settings: Lineweaver-Burk plot; for mode of inhibition of PTP1B: 6 pNPP and 4 compound concentrations
Method: The Lupeol group was used as a control group. The absorbance at 405 nm was detected by a spectraMAX 384 microplate spectrophotometer twice every minute for a total of 15 min. Michaelis-Menten constant (Km) and maximum velocity (Vmax) of PTP1B were determined via Lineweaver-Burk plots using the GraphPad Prism 5 program (GraphPad Software Inc, La Jolla, CA).

[7] = pNPP assay, 25 °C, read-out: IC50 TCPTP

Compound | Ki (PTP1B [1]) [µM] | mode of inhibition of PTP1B (literature) (PTP1B [3]) | IC50 (PTP1B [3]) [µM] | IC50 [5] [µM] | Fold changes (TCPTP IC50 / PTP1B IC50) [5] [fold] | IC50 [5, 7] [µM] | Km value of PTP1B in presence of compound (PTP1B [6]) | Vmax value of PTP1B in presence of compound (PTP1B [6]) | mode of inhibition of PTP1B (PTP1B [6]) | further results
C=C(C)[C@@H]1CC[C@]2(C)CC[C@]3(C)[C@H](CC[C@@H]4[C@@]5(C)CC[C@H](O)C(C)(C)[C@@H]5CC[C@]43C)[C@@H]12 [Lupeol, lupeol] | 5.6 | non-competitive inhibitor | 5.6 | 126 | 22 |  |  |  |  | inhibition of PTP1B enzyme activity (PTP1B [2]; lupeol 28 μM, 10 h after TNFα 8 h): significantly inhibited; inhibition at 28 µM (PTP1B [2]; lupeol 28 μM, 10 h after TNFα 8 h, read-out: inhibition of PTP1B enzyme activity): 35%; PTP1B protein expression (PTP1B [4]; lupeol 28 μM): slightly decreased; also recorded: do not significantly decrease
C=C(C)[C@@H]1CC[C@]2(C(=O)O)CC[C@]3(C)[C@H](CC[C@@H]4[C@@]5(C)CC[C@H](O)C(C)(C)[C@@H]5CC[C@]43C)[C@@H]12 [Betulinic acid, betulinic acid] |  |  |  |  | 81 | 124 | constant Km value | decreased Vmax value | non-competitive inhibitor | Ki (PTP1B [1]; IC50-to-Ki converter, [E] 0.01, [S] 20000 µM, read-out: Constant of inhibition [Ki]): 1.5 µM; inhibition of PTP1B enzyme activity (PTP1B [2]; betulinic acid 7.5 μM, 10 h after TNFα 8 h): significantly inhibited; inhibition at 7.5 µM (PTP1B [2]; betulinic acid 7.5 μM, 10 h after TNFα 8 h, read-out: inhibition of PTP1B enzyme activity): 35%; PTP1B protein expression (PTP1B [4]; betulinic acid 7.5 μM): slightly decreased; also recorded: do not significantly decrease
CCc1oc2cc(S(=O)(=O)Nc3ccc(S(=O)(=O)Nc4nccs4)cc3)ccc2c1C(=O)c1cc(Br)c(O)c(Br)c1 [Compound 3, reference compound] |  |  |  |  |  | 62.7 |  |  |  | 
C=C(C)[C@@H]1CC[C@]2(C)CC[C@]3(C)[C@H](CC[C@@H]4[C@@]5(C)CCC(=O)C(C)(C)[C@@H]5CC[C@]43C)[C@@H]12 [Lupenone, lupenone] |  | non-competitive inhibitors | 13.7 |  | 6 | 91.5 |  |  |  | 
TNFα |  |  |  |  |  |  |  |  |  | increase of PTP1B activity (PTP1B [2]; TNFα 20 ng/ml, 8 h): 1.5 fold; increase of PTP1B expression (PTP1B [4]; TNFα 20 ng/ml, 8 h): 1.75 fold
C=C(C)[C@@H]1CC[C@]2(CO)CC[C@]3(C)[C@H](CC[C@@H]4[C@@]5(C)CC[C@H](O)C(C)(C)[C@@H]5CC[C@]43C)[C@@H]12 [Betulin, betulin] | 15.3 |  | 15.3 | 119 | 7 |  | altered Km value | decreased Vmax value | mixed-type inhibition | 
